Measured values: publication PMC4747398, “Isothiocyanatostilbenes as novel c-Met inhibitors” (Oncotarget, 2015)
pIC50: −log10 of the molar value. Where two headings read alike, the source gives them in different places.

Columns and labels:
DU145 cells [1] = experiment: HGF-induced wound healing; type: cell-based; conditions: DU145, 33 ng/ml HGF, 4 μM DIDS or 25 μM H2DIDS
Procedure: (§1) DU145 cells were grown to ~100% confluency prior to wounding with the IncuCyte™ WoundMaker™ (Essen Bioscience; Ann Arbor, MI) and washed once with complete media. For invasion, cells were covered with Matrigel diluted 1:5 in serum-free RPMI following wounding. Cells were treated with 4 μM DIDS or 25 μM H2DIDS with or without 33 ng/ml HGF or 100 ng/ml EGF for up to 4 days. Images were taken every 4 hours with the IncuCyte™ ZOOM imaging system (Essen Bioscience). Quadruplicate replicates were used in each experiment. Data are presented as percent wound density ± standard error of the mean (S.E.M.).

DU145 cells [2] = experiment: HGF-induced invasion through Matrigel; type: cell-based; conditions: DU145, 33 ng/ml HGF, Matrigel diluted 1:5
Procedure: as §1

c-Met [3] = biological target: T1, c-Met (Homo sapiens, UniProt P08581); experiment: HGF-induced c-Met phosphorylation, western blot, DU145; type: cell-based; set-up: endogenous in cells; host or cells: DU145; conditions: for effective concentration for c-Met inhibition in 10% FBS versus serum-free: DU145, 33 ng/ml HGF 20 minutes, 10% FBS RPMI; for reduction of c-Met activation: 8 μM compound, western blot densitometry
T1 sequence (P08581 25-1390): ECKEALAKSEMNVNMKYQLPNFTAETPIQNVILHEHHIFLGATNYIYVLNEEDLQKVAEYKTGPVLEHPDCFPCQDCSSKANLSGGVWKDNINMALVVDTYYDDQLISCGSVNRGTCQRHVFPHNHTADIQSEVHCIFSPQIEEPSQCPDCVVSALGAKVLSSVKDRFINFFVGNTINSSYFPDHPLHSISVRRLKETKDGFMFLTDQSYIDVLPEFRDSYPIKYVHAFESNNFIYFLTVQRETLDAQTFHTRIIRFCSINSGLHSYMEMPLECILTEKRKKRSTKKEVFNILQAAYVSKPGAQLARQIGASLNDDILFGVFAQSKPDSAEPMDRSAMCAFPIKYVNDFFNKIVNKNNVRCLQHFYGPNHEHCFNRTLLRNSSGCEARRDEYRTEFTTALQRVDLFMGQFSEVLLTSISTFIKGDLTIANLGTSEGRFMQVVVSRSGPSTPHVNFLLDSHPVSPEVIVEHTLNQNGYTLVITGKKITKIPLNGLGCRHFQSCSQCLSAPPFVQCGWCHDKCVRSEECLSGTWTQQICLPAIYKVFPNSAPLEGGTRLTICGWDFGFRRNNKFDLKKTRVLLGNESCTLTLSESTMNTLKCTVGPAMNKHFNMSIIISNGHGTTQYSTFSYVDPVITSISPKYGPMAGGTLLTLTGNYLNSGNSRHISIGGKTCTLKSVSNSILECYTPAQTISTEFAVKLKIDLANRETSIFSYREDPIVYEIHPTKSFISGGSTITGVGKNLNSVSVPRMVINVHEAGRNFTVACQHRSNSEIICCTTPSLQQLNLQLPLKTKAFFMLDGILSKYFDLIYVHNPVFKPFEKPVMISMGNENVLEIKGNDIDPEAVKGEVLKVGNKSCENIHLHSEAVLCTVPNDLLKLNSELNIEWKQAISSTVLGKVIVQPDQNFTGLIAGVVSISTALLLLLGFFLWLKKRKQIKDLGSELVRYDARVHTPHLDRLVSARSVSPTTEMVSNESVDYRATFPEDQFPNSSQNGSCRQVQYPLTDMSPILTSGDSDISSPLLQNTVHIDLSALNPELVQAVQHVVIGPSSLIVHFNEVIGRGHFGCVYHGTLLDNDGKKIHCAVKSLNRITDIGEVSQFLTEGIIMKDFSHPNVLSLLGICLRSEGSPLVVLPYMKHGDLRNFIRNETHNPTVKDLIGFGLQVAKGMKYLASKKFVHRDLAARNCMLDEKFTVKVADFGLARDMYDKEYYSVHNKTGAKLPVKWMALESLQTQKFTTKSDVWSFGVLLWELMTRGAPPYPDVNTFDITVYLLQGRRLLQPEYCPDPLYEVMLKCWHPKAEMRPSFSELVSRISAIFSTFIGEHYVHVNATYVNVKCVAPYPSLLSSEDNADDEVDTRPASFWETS
Procedure: (§2) Cells were grown to ~70% confluency prior to treatment. Cells were serum-starved in serum-free media for 30 minutes prior to treatment in complete media or serum-free media for the indicated times. Cell lysates were collected in Laemmli (125 mM Tris, 4% SDS, 0.01% bromophenol blue, 30% sucrose) containing 0.5% β-mercaptoethanol and boiled ~8 minutes. Primary antibodies include: phospho-c-Met (Y1234/1235), phospho-Akt (S473), pEGFR (S845), pIGF-IRβ (Y1135/1136) (Cell Signaling Technology; Beverly, MA); α-actin (Sigma-Aldrich), c-Met (C-28) (Life Technologies). Secondary antibodies include: horseradish peroxidase-conjugated anti-rabbit and anti-mouse (GE Healthcare; Pittsburgh, PA). ECL 2 was used for chemiluminescent detection (Thermo Scientific; Rockford, IL). Densitometry was calculated using ImageJ (NIH).

[4] = 2D proliferation (Cell Titer Blue); type: cell-based; conditions: up to 72 hours; for effect on serum-free proliferation (2D): serum-free RPMI
Procedure: Cells were seeded to ~30% confluency prior to treatment with DIDS or H2DIDS at 0.5 μM, 2 μM, 8 μM, 32 μM, or 64 μM for 24 hours, 48 hours, or 72 hours in complete or serum-free RPMI. A T0 timepoint was also measured. For each timepoint, cells were exposed to Cell Titer Blue reagent (Promega) for 1 hour at 37°C 5% CO2. Experiments were performed with quadruplicate replicates. Fluorescence was measured using a BioTek Synergy 4 plate reader with Gen5 software.

c-Met [5] = biological target: T1, c-Met; experiment: Constitutive pMet in c-Met amplified H1993 cells, western blot; type: cell-based; set-up: endogenous in cells; conditions: 5 μM compound, no HGF
Procedure: as §2

IGFR = biological target: T2, IGFR (Homo sapiens, UniProt P08069); experiment: IGF-induced IGFR activation, western blot, DU145; type: cell-based; conditions: DU145, 100 ng/ml IGF 20 minutes, 4 μM DIDS or 25 μM H2DIDS
T2 construct: endogenous in cells; host or cells: DU145
Procedure: as §2

DU145 cells [6] = experiment: EGF-induced wound healing; type: cell-based; conditions: DU145, 100 ng/ml EGF, 4 μM DIDS or 25 μM H2DIDS
Procedure: as §1

wild-type c-Met = wild-type c-Met (Homo sapiens, UniProt P08581); experiment: Z'-LYTE kinase phosphorylation inhibition assay, wild-type c-Met; type: biochemical
wild-type c-Met, sequence (P08581 25-1390): as above
Procedure: (§3) Z'-LYTE™ Kinase Assay-Tyr6 Peptide kit (Invitrogen) was used to assess the ability of tested compounds to inhibit c-Met phosphorylation. Briefly, 20 μl/well reactions were set up in 96-well plates containing kinase buffer, 200 μM ATP, 4 μM Z-LYTE™ Tyr6 Peptide substrate, 2500 ng/ml c-Met kinase and DIDS or H2DIDS at various concentrations. After 1 hour incubation at room temperature, 10 μl development solution containing site-specific protease was added to each well. Incubation was continued for 1 hour. The reaction was then stopped, and the fluorescent signal ratio of 445 nm (coumarin)/520 nm (fluorescein) was determined on a plate reader (BioTek FLx800™), which reflects the peptide substrate cleavage status and/or the kinase inhibitory activity in the reaction. […] The IC50 value for each compound was calculated by nonlinear regression of log concentration versus % c-Met phosphorylation ± S.E.M., implemented in GraphPad Prism version 5.0 (GraphPad Software, CA, USA).

EGFR = biological target: T3, EGFR (Homo sapiens, UniProt P00533); experiment: EGF-induced EGFR activation, western blot, DU145; type: cell-based; conditions: DU145, 100 ng/ml EGF 20 minutes, 4 μM DIDS or 25 μM H2DIDS
T3 construct: 100 ng/ml EGF b; endogenous in cells; host or cells: DU145
T3 sequence (P00533 25-1210): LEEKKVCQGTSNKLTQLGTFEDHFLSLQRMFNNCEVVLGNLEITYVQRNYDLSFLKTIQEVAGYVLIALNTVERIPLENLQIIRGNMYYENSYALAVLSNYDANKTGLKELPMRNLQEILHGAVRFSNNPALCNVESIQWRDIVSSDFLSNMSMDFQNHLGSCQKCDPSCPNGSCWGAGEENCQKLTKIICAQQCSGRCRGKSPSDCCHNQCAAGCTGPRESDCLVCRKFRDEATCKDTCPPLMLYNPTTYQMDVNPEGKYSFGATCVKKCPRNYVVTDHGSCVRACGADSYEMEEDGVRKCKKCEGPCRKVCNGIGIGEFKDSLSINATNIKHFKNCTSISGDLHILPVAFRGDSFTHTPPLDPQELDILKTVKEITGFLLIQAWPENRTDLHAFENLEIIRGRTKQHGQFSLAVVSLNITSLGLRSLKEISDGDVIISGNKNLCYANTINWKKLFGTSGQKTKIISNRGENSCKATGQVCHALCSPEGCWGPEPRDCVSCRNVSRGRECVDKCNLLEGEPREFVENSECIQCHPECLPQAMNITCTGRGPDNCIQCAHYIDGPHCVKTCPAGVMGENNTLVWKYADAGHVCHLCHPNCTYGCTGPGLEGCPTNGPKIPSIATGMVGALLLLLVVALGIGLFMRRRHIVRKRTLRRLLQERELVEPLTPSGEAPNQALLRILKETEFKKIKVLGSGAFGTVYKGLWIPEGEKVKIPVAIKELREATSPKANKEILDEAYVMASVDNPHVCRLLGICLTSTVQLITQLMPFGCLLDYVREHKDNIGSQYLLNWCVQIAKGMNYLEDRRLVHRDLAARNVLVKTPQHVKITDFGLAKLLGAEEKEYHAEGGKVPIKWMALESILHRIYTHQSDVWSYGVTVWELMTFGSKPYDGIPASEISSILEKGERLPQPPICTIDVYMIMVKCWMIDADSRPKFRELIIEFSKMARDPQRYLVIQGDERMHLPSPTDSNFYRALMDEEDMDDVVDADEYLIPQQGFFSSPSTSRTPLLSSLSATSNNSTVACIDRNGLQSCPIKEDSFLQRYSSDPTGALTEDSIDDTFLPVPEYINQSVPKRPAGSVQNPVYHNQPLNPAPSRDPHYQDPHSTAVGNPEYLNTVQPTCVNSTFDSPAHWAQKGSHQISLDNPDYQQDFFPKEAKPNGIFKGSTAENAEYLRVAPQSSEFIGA
Procedure: as §2

DU145 cells [7] = experiment: HGF-induced cell scattering assay; type: cell-based; conditions: DU145, 33 ng/ml HGF overnight, 4 μM DIDS or 25 μM H2DIDS
Procedure: DU145 cells were grown to ~50% confluency. Cells were treated overnight with 4 μM DIDS or 25 μM H2DIDS in the presence or absence of 33 ng/ml HGF or 100 ng/ml EGF. Cells were fixed with 4% paraformaldehyde and stained with Oregon Green 488 phalloidin (Invitrogen; Carlsbad, CA). Images were acquired on an Eclipse TE300 inverted microscope (Nikon; Tokyo, Japan) with NIS Elements version 4.13.04 software. Presented images were taken using a 10X objective.

DU145 spheroids = experiment: 3D spheroid proliferation in Matrigel; type: cell-based; conditions: 5 μM compound, 33 ng/ml HGF, 72 hours
Procedure: Prior to seeding, cells were incubated with 2.5 ng/μl CellTracker Red (Life Technologies) in complete DMEM lacking Phenol Red for 5 minutes at room temperature then centrifuged at 1000 RPM for 5 minutes. Dyed cells were resuspended in complete DMEM lacking Phenol Red and containing 5% Matrigel before adding 5 μM, 10 μM, 20 μM, or 40 μM DIDS or H2DIDS +/− HGF. The mixture of cells, treatments, and Matrigel in complete media was seeded at 2000 cells/well in a 96 well plate. The plate was centrifuged at 1000 RPM for 3 minutes to collect the cells into the bottom of the plate. Spheroid growth was imaged for up to 80 hours and analyzed for average red object area using the IncuCyte™ ZOOM software. […] Images were captured by the IncuCyte™ ZOOM imaging system and representative 10X images are shown.

[8] = system: protein translocation across the ER membrane; set-up: method as in PMID 8396042; conditions: cited from earlier work
[9] = system: MDA-MB-231/GFP human breast cancer cells; experiment: Orthotopic breast tumor xenograft; type: in vivo; conditions: mice, 5 mg/kg then 10 mg/kg i.p.
Procedure: (§4) All animal experiments were approved by the Institutional Animal Care and Use Committee, University of Louisiana at Monroe, and were handled in strict accordance with good animal practice as defined by the NIH guidelines. Athymic nude mice (Foxn1^nu/Foxn1^+, 4–5 weeks, female) were purchased from Harlan (Indianapolis, IN). The mice had free access to standard pellet food and water. The animals were acclimated to animal house facility conditions at a temperature of 18–25°C, with a relative humidity of 55 to 65% and a 12 h light/dark cycle, for one week prior to the experiments. MDA-MB-231/GFP human breast cancer cells were cultured and resuspended in serum-free DMEM medium (20 μl). After anesthesia, cell suspensions (1 × 10^6 cells/20 μl) were inoculated subcutaneously into the second mammary gland fat pad just beneath the nipple of each animal to generate orthotopic breast tumors. […] The mice were monitored by measuring tumor volume, body weight, and clinical observation. Tumor volume (V) was calculated by V = L/2 × W^2, where L was the length and W was the width of tumors. The results are presented as average ± S.E.M. Differences among various treatment groups were determined by the analysis of variance (ANOVA) followed by Dunnett's test using PASW statistics version 18. […]

[10] = system: matrix metalloproteinase release; set-up: method as in PMID 22937143; conditions: cited from earlier work
[11] = Tolerability in xenograft mice; type: in vivo
Procedure: as §4

Akt = experiment: Downstream Akt phosphorylation, western blot, DU145; type: cell-based; conditions: DU145, serum-free, HGF, ~8 μM compound
Procedure: as §2

c-Met M1250T (M1268T) = c-Met M1250T (M1268T) (Homo sapiens, UniProt P08581, M1250T); experiment: Z'-LYTE kinase phosphorylation inhibition assay, mutant c-Met; type: biochemical; conditions: 200 μM ATP, cell-free
c-Met M1250T (M1268T), sequence (P08581 956-1390 M1250T limits assumed): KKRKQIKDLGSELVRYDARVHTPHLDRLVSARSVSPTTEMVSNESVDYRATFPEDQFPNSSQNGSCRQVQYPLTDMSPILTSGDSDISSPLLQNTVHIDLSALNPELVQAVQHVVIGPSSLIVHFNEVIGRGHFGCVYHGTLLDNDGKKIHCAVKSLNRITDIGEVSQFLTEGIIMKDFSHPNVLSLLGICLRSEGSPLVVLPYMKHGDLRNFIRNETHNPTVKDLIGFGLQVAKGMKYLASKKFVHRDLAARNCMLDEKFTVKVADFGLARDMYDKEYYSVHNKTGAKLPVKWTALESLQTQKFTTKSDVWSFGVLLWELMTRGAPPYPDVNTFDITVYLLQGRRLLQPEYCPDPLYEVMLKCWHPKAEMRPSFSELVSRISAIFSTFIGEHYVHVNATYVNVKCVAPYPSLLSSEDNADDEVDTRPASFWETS
Procedure: as §3

c-Met [12] = biological target: T1, c-Met; experiment: Washout and reversal of c-Met phosphorylation in DU145, western blot; type: cell-based; set-up: endogenous in cells; host or cells: DU145; conditions: wash
Procedure: as §2

[13] = DU145, serum-free, 33 ng/ml HGF 20 minutes

Structure (SMILES) | effect on HGF-induced wound healing (DU145 cells [1]) | effect on HGF-induced invasion (DU145 cells [2]) | effective concentration for c-Met inhibition in 10% FBS versus serum-free (c-Met [3]) | reduction of c-Met activation (c-Met [3]; [13]) | effect on proliferation in complete media (2D) [4] | effect on serum-free proliferation (2D) [4] | effect on pMet levels in H1993 cells (c-Met [5]) | effect on IGFR activation (IGFR) | effect on EGF-mediated wound healing (DU145 cells [6]) | effect on EGFR activation (EGFR) | effect on HGF-induced cell scattering (DU145 cells [7]) | decrease of HGF-induced DU145 spheroid growth (DU145 spheroids) | other results
O=S(=O)(O)c1cc(N=C=S)ccc1CCc1ccc(N=C=S)cc1S(=O)(=O)O [H2DIDS, 4,4′-Diisothiocyanatodihydrostilbene-2,2′-disulfonic acid] | significantly reduced | reduce HGF-induced wound healing and invasion in a dose-dependent manner | slightly higher effective concentrations | ~ 90% | minimal effects | minimal effects | much less significant effects | do not significantly reduce | minimal effects | do not significantly reduce | able to reduce HGF-induced | ~ 60% | pIC50 (wild-type c-Met): 5.44
O=[N+]([O-])c1ccc(C=Cc2ccc([N+](=O)[O-])cc2S(=O)(=O)O)c(S(=O)(=O)O)c1 [DNDS, 4,4′-dinitrostilbene-2,2′-disulfonic acid] | – | – | – | – | – | – | – | – | – | – | – | – | inhibition at 2000 µM (c-Met [3]; DU-145, read-out: inhibition of c-Met): ~90%
Cc1[nH]c(/C=C2\C(=O)Nc3ccc(S(=O)(=O)N(C)c4cccc(Cl)c4)cc32)c(C)c1C(=O)N1CCN(C)CC1 [SU11274] | – | – | – | – | – | – | ameliorated pMet levels | – | – | – | – | – | reduction of c-Met phosphorylation (wild-type c-Met; 500 nM compound, cell-free kinase assay): ~ 70%
O=S(=O)(O)c1cc(N=C=S)ccc1C=Cc1ccc(N=C=S)cc1S(=O)(=O)O [DIDS, 4,4′-Diisothiocyanatostilbene-2,2′-disulfonic acid] | significantly reduced | reduce HGF-induced wound healing and invasion in a dose-dependent manner | slightly higher effective concentrations | ~ 90% | minimal effects | minimal effects | much less significant effects | do not significantly reduce | minimal effects | do not significantly reduce | able to reduce HGF-induced | ~ 60% | concentration inhibiting protein translocation across the ER membrane [8]: ≥ 400 µM; tumor size (caliper) ([9]; 3X/week): began to reduce tumor size towards the end of the experiment; tumor weight at necropsy ([9]; versus DMSO control): Differences in overall tumor weight were evident; concentration inhibiting matrix metalloproteinase release [10]: ≥ 400 µM; signs of toxicity ([11]; 5 mg/kg intraperitoneally, ~2 weeks): No obvious signs of toxicity; body weight versus DMSO control ([11]; 5 mg/kg then 10 mg/kg i.p., 3X/week): no change in body weight; reduction of downstream Akt (Akt): ~ 90%; pIC50 (wild-type c-Met; 200 μM ATP, cell-free, read-out: IC50, wild-type c-Met): 6.52; pIC50 (c-Met M1250T (M1268T)): 6.43; effect on pMet when given post HGF treatment (c-Met [12]; DU145, 33 ng/ml HGF 20 minutes, 4 μM for 20 or 60 minutes): reduced pMet levels; reversibility of c-Met inhibition after washout (c-Met [12]; DU145, 4 μM 20 minutes, then 33 ng/ml HGF 20 minutes): does not irreversibly bind c-Met
CC(=O)Nc1ccc(C=Cc2ccc(N=C=S)cc2S(=O)(=O)O)c(S(=O)(=O)O)c1 [SITS, 4-acetamido-4′-isothiocyanatostilbene-2,2′-disulfonic acid] | – | – | – | – | – | – | – | – | – | – | – | – | inhibition at 250 µM (c-Met [3]; DU-145, DU145, serum-free, 33 ng/ml HGF 20 minutes, 250 μM compound): ~90%
